Target: ITK enzyme (ITK FL, N-Flag and C-His tagged) (Homo sapiens (Human), UniProt Q08881)
Experiment: ITK enzyme assay (IL-2-inducible T-cell kinase activity)
Format: biochemical
Details: geometric mean of count n
Protocol: IL-2-Inducible T-Cell Kinase (ITK) Activity, IC50 (nM)
ITK activity was determined by measuring the effect of a test compound in an ITK enzyme assay.
1.0 M HEPES Buffer pH 7.5 solution was prepared as follows: 238.3 g HEPES free acid (Sigma) and 800 mL of water were combined, and the mixture was stirred until complete dissolution. The pH was adjusted to 7.5 via titration with 5N NaOH and the volume adjusted to 1000 mL. The solution was filtered and sterilized.
ITK assay buffer was prepared as follows: 50 mL of HPLC-grade water was treated with 2 mL of 1.0 M HEPES Buffer, 500 μL of 2% Gelatin (Sigma), 1.0 mL of aqueous MgCl2 solution (1.0 M), and 1.0 mL of aqueous glutathione solution (0.5 M), and the solution was mixed. The solution was brought to 99 mL in a graduated cylinder by addition of water and sterilized through a 0.2 μm filter. 0.1 mL of Brij-35™ Surfact-Amps™ Detergent Solution (10% w/v aqueous solution, ThermoFisher) and 1.0 mL of ATP (Teknova, 100 mM) were added and the solution was mixed.
The resulting solution was stored on ice. 30 Minutes prior to use, the enzyme solution was removed from ice and equilibrated to RT by incubation in a RT water bath.
Preparation of 4×ITK substrate solution was as follows: 50 mL of ITK assay buffer was treated with 100 μL of BTK peptide (China Peptide Company, 2 mM stock solution in DMSO). The tube was capped, mixed by gently inverting the tube, and then stored on ice. 30 Minutes prior to use, the substrate solution was removed from ice and equilibrated to RT by incubation in a RT water bath.
At the time of assay, 7.5 μL of the 1.33×ITK enzyme solution was added to plate wells containing 0.1 μL of varying concentrations of test compound in DMSO. The plate was incubated 30 min at RT. The plate wells were each treated with 2.5 uL of the 4×ITK substrate solution and the plate was sealed (TopSeal™, Perkin Elmer). The plate was spun at 1000 rpm for 30 sec and then incubated for 60 min at RT. The seal was removed, and each well was treated with 10 μL of Stop/Detect Buffer (20 mM HEPES pH 7.5, 0.01% gelatin, 1 nM LANCE PT66 (Perkin Elmer), 16.5 μg/ml Surelight APC (Perkin Elmer), 10 mM EDTA, 250 mM NaCl). The plate was again covered and was spun at 1000 rpm for 30 seconds. The plate was allowed to incubate overnight at RT and in a closed carrier to reduce dehydration. The seal was removed, and the fluorescence was read with a plate reader with an excitation wavelength of […] and an emission wavelength of 615 nm.

ITK enzyme (ITK FL, N-Flag and C-His tagged), sequence (Q08881 whole entry): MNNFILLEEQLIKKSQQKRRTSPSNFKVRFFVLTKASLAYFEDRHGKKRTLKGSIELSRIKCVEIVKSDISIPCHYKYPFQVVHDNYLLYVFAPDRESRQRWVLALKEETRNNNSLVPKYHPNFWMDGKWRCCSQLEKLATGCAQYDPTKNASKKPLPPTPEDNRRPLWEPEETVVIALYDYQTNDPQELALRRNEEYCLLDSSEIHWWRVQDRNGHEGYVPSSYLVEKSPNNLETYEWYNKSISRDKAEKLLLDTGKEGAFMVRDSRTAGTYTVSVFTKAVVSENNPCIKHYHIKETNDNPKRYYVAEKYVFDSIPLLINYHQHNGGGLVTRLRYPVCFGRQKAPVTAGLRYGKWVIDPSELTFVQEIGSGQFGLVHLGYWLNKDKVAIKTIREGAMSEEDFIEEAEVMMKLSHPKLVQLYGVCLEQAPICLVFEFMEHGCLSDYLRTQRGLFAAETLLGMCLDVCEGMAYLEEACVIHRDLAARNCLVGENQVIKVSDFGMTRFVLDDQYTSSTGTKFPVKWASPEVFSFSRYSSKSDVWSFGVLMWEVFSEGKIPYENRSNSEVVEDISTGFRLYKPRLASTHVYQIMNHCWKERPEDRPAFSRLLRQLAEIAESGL

SMILES	IC50
Cc1cc2[nH]c(-c3n[nH]c4c3C[C@@H]3C[C@]3(C)C4)nc2cc1N(C)C(=O)[C@H](C)C1CCOCC1 [Example 4, (R)—N-methyl-N-(6-methyl-2-((4aS,5aR)-5a-methyl-1,4,4a,5,5a,6-hexahydrocyclopropa[f]indazol-3-yl)-1H-benzo[d]imidazol-5-yl)-2-(tetrahydro-2H-pyran-4-yl)propanamide]	3 nM
Cc1cc2[nH]c(-c3n[nH]c4c3C[C@@H]3C[C@]3(C)C4)nc2cc1N(C)C(=O)C(C)C1CCOCC1 (stereo partly drawn) [Example 5, N-methyl-N-(6-methyl-2-((4aS,5aR)-5a-methyl-1,4,4a,5,5a,6-hexahydrocyclopropa[f]indazol-3-yl)-1H-benzo[d]imidazol-5-yl)-2-(tetrahydro-2H-pyran-4-yl)propanamide]	5 nM
CCN(C(=O)[C@H](C)N1CCOCC1)c1cc2nc(-c3n[nH]c4c3C[C@@H]3C[C@]3(C)C4)[nH]c2cc1C [Example 6, (S)—N-ethyl-N-(6-methyl-2-((4aS,5aR)-5a-methyl-1,4,4a,5,5a,6-hexahydrocyclopropa[f]indazol-3-yl)-1H-benzo[d]imidazol-5-yl)-2-morpholinopropanamide]	11 nM
CN(C(=O)CC1CCOCC1)c1ccc2[nH]c(-c3n[nH]c4c3C[C@@H]3C[C@]3(C)C4)nc2c1 [Example 10, N-methyl-N-(2-((4aS,5aR)-5a-methyl-1,4,4a,5,5a,6-hexahydrocyclopropa[f]indazol-3-yl)-1H-benzo[d]imidazol-5-yl)-2-(tetrahydro-2H-pyran-4-yl)acetamide]	7 nM
C[C@@H](C(=O)N(C)c1cc(F)c2[nH]c(-c3n[nH]c4c3C[C@@H]3C[C@]3(C)C4)nc2c1)C1CCOCC1 [Example 12, (R)—N-(7-fluoro-2-((4aS,5aR)-5a-methyl-1,4,4a,5,5a,6-hexahydrocyclopropa[f]indazol-3-yl)-1H-benzo[d]imidazol-5-yl)-N-methyl-2-(tetrahydro-2H-pyran-4-yl)propanamide]	3 nM
C[C@@H](C(=O)N(C)c1ccc2[nH]c(-c3n[nH]c4c3C[C@@H]3C(F)(F)[C@]3(C)C4)nc2c1)N1CCOCC1 [Example 13, (S)—N-(2-((4aS,5aR)-5,5-difluoro-5a-methyl-1,4,4a,5,5a,6-hexahydrocyclopropa[f]indazol-3-yl)-1H-benzo[d]imidazol-5-yl)-N-methyl-2-morpholinopropanamide]	1 nM
C[C@@H](C(=O)N(C)c1ccc2[nH]c(-c3n[nH]c4c3C[C@@H]3C[C@]3(C)C4)nc2c1)N1CCOCC1 [Example 14, (S)—N-methyl-N-(2-((4aS,5aR)-5a-methyl-1,4,4a,5,5a,6-hexahydrocyclopropa[f]indazol-3-yl)-1H-benzo[d]imidazol-5-yl)-2-morpholinopropanamide]	3 nM
C[C@@H](C(=O)N(C)c1cc(F)c2[nH]c(-c3n[nH]c4c3C[C@@H]3C[C@]3(C)C4)nc2c1)N1CCOCC1 [Example 15, (S)—N-(7-fluoro-2-((4aS,5aR)-5a-methyl-1,4,4a,5,5a,6-hexahydrocyclopropa[f]indazol-3-yl)-1H-benzo[d]imidazol-5-yl)-N-methyl-2-morpholinopropanamide]	4 nM
CCN(C(=O)[C@H](C)N1CCOCC1)c1cc(F)c2[nH]c(-c3n[nH]c4c3C[C@@H]3C[C@]3(C)C4)nc2c1 [Example 16, (S)—N-ethyl-N-(7-fluoro-2-((4aS,5aR)-5a-methyl-1,4,4a,5,5a,6-hexahydrocyclopropa[f]indazol-3-yl)-1H-benzo[d]imidazol-5-yl)-2-morpholinopropanamide]	5 nM
C[C@@H](C(=O)N(C)c1cc2nc(-c3n[nH]c4c3C[C@@H]3C[C@]3(C)C4)[nH]c2cc1F)N1CCOCC1 [Example 17, (S)—N-(6-fluoro-2-((4aS,5aR)-5a-methyl-1,4,4a,5,5a,6-hexahydrocyclopropa[f]indazol-3-yl)-1H-benzo[d]imidazol-5-yl)-N-methyl-2-morpholinopropanamide]	5 nM
COc1cc2[nH]c(-c3n[nH]c4c3C[C@@H]3C[C@]3(C)C4)nc2cc1N(C)C(=O)[C@H](C)N1CCOCC1 [Example 19, (S)—N-(6-methoxy-2-((4aS,5aR)-5a-methyl-1,4,4a,5,5a,6-hexahydrocyclopropa[f]indazol-3-yl)-1H-benzo[d]imidazol-5-yl)-N-methyl-2-morpholinopropanamide]	9 nM
C[C@@H](C(=O)N(C)c1cc2nc(-c3n[nH]c4c3C[C@@H]3C[C@]3(C)C4)[nH]c2cc1Br)N1CCOCC1 [Example 20, (S)—N-(6-bromo-2-((4aS,5aR)-5a-methyl-1,4,4a,5,5a,6-hexahydrocyclopropa[f]indazol-3-yl)-1H-benzo[d]imidazol-5-yl)-N-methyl-2-morpholinopropanamide]	5 nM
C[C@@H](C(=O)N(C)c1cc2nc(-c3n[nH]c4c3C[C@@H]3C[C@]3(C)C4)[nH]c2cc1C#N)N1CCOCC1 [Example 21, (S)—N-(6-cyano-2-((4aS,5aR)-5a-methyl-1,4,4a,5,5a,6-hexahydrocyclopropa[f]indazol-3-yl)-1H-benzo[d]imidazol-5-yl)-N-methyl-2-morpholinopropanamide]	9 nM
C[C@@H](C(=O)N(C)c1cc2nc(-c3n[nH]c4c3C[C@@H]3C[C@]3(C)C4)[nH]c2c(F)c1F)N1CCOCC1 [Example 24, (S)—N-(6,7-difluoro-2-((4aS,5aR)-5a-methyl-1,4,4a,5,5a,6-hexahydrocyclopropa[f]indazol-3-yl)-1H-benzo[d]imidazol-5-yl)-N-methyl-2-morpholinopropanamide]	8 nM
CCN(C(=O)[C@H](C)N1CCOCC1)c1cc2nc(-c3n[nH]c4c3C[C@@H]3C[C@]3(C)C4)[nH]c2c(F)c1F [Example 25, (S)—N-(6,7-difluoro-2-((4aS,5aR)-5a-methyl-1,4,4a,5,5a,6-hexahydrocyclopropa[f]indazol-3-yl)-1H-benzo[d]imidazol-5-yl)-N-ethyl-2-morpholinopropanamide]	13 nM
Cc1cc2[nH]c(-c3n[nH]c4c3C[C@@H]3C[C@]3(C)C4)nc2cc1N(C)C(=O)CN1CCO[C@H](CO)C1 [Example 26, 2-((S)-2-(hydroxymethyl)morpholino)-N-methyl-N-(6-methyl-2-((4aS,5aR)-5a-methyl-1,4,4a,5,5a,6-hexahydrocyclopropa[f]indazol-3-yl)-1H-benzo[d]imidazol-5-yl)acetamide]	12 nM
Cc1cc2[nH]c(-c3n[nH]c4c3C[C@@H]3C[C@]3(C)C4)nc2cc1N(C)C(=O)CN1CCOC(CO)C1 (stereo partly drawn) [Example 27, 2-(2-(Hydroxymethyl)morpholino)-N-methyl-N-(6-methyl-2-((4aS,5aR)-5a-methyl-1,4,4a,5,5a,6-hexahydrocyclopropa[f]indazol-3-yl)-1H-benzo[d]imidazol-5-yl)acetamide]	17 nM
Cc1cc2[nH]c(-c3n[nH]c4c3C[C@@H]3C[C@]3(C)C4)nc2cc1N(C)C(=O)CN1CCO[C@@H](CO)C1 [Example 28, 2-((R)-2-(Hydroxymethyl)morpholino)-N-methyl-N-(6-methyl-2-((4aS,5aR)-5a-methyl-1,4,4a,5,5a,6-hexahydrocyclopropa[f]indazol-3-yl)-1H-benzo[d]imidazol-5-yl)acetamide]	19 nM
Cc1cc2[nH]c(-c3n[nH]c4c3C[C@@H]3C[C@]3(C)C4)nc2cc1N(C)C(=O)CN1CCOC(C)(C)C1 [Example 29, 2-(2,2-Dimethylmorpholino)-N-methyl-N-(6-methyl-2-((4aS,5aR)-5a-methyl-1,4,4a,5,5a,6-hexahydrocyclopropa[f]indazol-3-yl)-1H-benzo[d]imidazol-5-yl)acetamide]	12 nM
Cc1cc2[nH]c(-c3n[nH]c4c3C[C@@H]3C[C@]3(C)C4)nc2cc1N(C)C(=O)CN1CCO[C@H](C)C1 [Example 30, N-Methyl-N-(6-methyl-2-((4aS,5aR)-5a-methyl-1,4,4a,5,5a,6-hexahydrocyclopropa[f]indazol-3-yl)-1H-benzo[d]imidazol-5-yl)-2-((R)-2-methylmorpholino)acetamide]	15 nM
Cc1cc2[nH]c(-c3n[nH]c4c3C[C@@H]3C[C@]3(C)C4)nc2cc1N(C)C(=O)CN1CCO[C@@H](C)C1 [Example 31, N-Methyl-N-(6-methyl-2-((4aS,5aR)-5a-methyl-1,4,4a,5,5a,6-hexahydrocyclopropa[f]indazol-3-yl)-1H-benzo[d]imidazol-5-yl)-2-((S)-2-methylmorpholino)acetamide]	13 nM
